Patent publication US20090175838A1, “METHODS OF MODULATING IMMUNE FUNCTION” (priority 2007, published 2009)
No end group written: not given here. *: point of attachment. Biotin = O=C1N[C@H]2[C@H](CS[C@H]2CCCCC(=O)*)N1

Legend:
[1] = system: human B-cell lines, Raji and Daudi; assay: Binding of biotinylated synthetic peptide to B-cell lines (Streptavidin-PE flow cytometry); type: cell-based; settings: 50 μM
Procedure: (§1) The ability of synthetic peptides to compete with binding of CLIP peptides and result in the cell surface expression of CD1d was determined.
(§2) Results: The results shown in FIG. 5 are expressed in histogram analyses. The Y axis represents cell number of the 5000 live cells versus the X axis which is a reflection of relative Fitc fluorescence versus Streptavidin-PE (eBioscience, Cat. #12-4317) that will bind with high affinity to cell-bound biotinylated peptides. The distance between the histogram from the isotype control staining versus the histogram reflecting the specific stain and is a measure of level of cell surface CD1d.
(§3) Cell Culture Conditions: The Raji and Daudi cell lines were purchased from American Type Culture Collection, were thawed, and grown in RPMI 1640 medium supplemented with standard supplements, including 10% fetal calf serum, gentamycin, penicillin, streptomycin, sodium pyruvate, HEPES buffer, 1-glutamine, and 2-ME.
Protocol: Cells were plated into a 12 well plate with 3 mls total volume containing approximately 1.5×10^6/well for Daudi cells and 3.0×10^6/well for Raji cells. Treatment groups included no treatment as control and biotinylated […] (SEQ ID NO. 1) (also referred to as MKN 5) at 50 μM final concentration based on the reported molarity of the synthesized compounds. […]

[2] = system: cell surface CD1d on Raji and Daudi cells; assay: Cell surface expression of CD1d after competing peptide (flow cytometry, anti-CD1d); type: cell-based, human; settings: 50 μM, both cell lines
Procedure: as §1, §2, §3
Protocol: Cells were plated into a 12 well plate with 3 mls total volume containing approximately 1.5×10^6/well for Daudi cells and 3.0×10^6/well for Raji cells. Treatment groups included no treatment as control and biotinylated […] […]
Harvested cells were stained using standard staining procedure that called for a 1:100 dilution of PE anti-CD1d. […] Samples were acquired and analyzed on a Coulter Excel Flow Cytometer.

[3] = system: cell surface CLIP on Raji or Daudi cells; assay: MKN1 (bioCLIP) effect on cell surface CLIP level (flow cytometry); type: cell-based, human; settings: 24 and 48 hours
Procedure: (§4) The ability of MKN1 (bioCLIP) to alter cell surface CLIP and CD74 levels was determined using Raji or Daudi cells.
(§5) Data were analyzed by histogram with Y axis represents cell number of the 5000 live cells versus the X axis which is a reflection of relative FITC fluorescence with either antibodies to CLIP or CD74. The distance between the histogram from the isotype control staining versus the histogram reflecting the specific stain and is a measure of level of cell surface CLIP or CD74 when staining a population of live Raji or Daudi cells.
as §3
(§6) Protocol: Cells were plated into a 12-well plate with 3 mls total volume containing approximately 0.5×10^6/mL for Daudi cells and 0.5×10^6/mL for Raji cells. […]
(§7) Harvested cells were stained using standard staining procedure that called for a 1:100 dilution of Fitc-anti-human CLIP or CD74 antibody (FITC, Pharmingen, Cat # 554647) or isotype control. […] Samples were acquired and analyzed on a Coulter Excel Flow Cytometer.

[4] = system: cell surface CD74 on Raji or Daudi cells; assay: MKN1 (bioCLIP) effect on cell surface CD74 level (flow cytometry); type: cell-based, human; settings: 24 and 48 hours
Procedure: as §4, §5, §3, §6, §7

Sequence of cell surface CLIP on Raji or Daudi cells (P04233 97-120): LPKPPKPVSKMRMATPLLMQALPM

Row | Substance | binding of biotinylated peptide to B-cell lines ([1]; 4 hours) | binding of biotinylated peptide to B-cell lines ([1]; 24 hours) | cell surface expression of CD1d ([2]; 4 hours) | cell surface expression of CD1d ([2]; 24 hours) | cell surface CLIP level [3] | cell surface CD74 level [4]
1 | FRIMAVLAS (also: biotin) | bound with high affinity | Less binding | marginally | slightly more |  | 
2 | SGG GSK MRM ATP LLM QAL Y (Biotin-SGGGSKMRMATPLLMQALY) [MKN1 (bioCLIP)] |  |  |  |  | alters cell surface CLIP and CD74 levels | alters cell surface CLIP and CD74 levels
